Results on 16 compounds are retold here after paper PMC6017257, “Towards a Novel Class of Multitarget-Directed Ligands: Dual P2X7–NMDA Receptor Antagonists” (Molecules : A Journal of Synthetic Chemistry and Natural …, 2018).

Series [1] relates to NMDA receptors. Description: Inhibition of NMDA-evoked increase in intracellular calcium in rat cultured cerebellar granule neurons. Type of series: cell-based. As to conditions: for % inhibition: relative to maximum intracellular calcium stimulated by 100 µM NMDA with 10 µM glycine. As for the experimental part: Additionally, to evaluate whether the synthesized compounds were able to antagonize the NMDA receptors, we measured their effects on the increase in intracellular calcium evoked by NMDA (100 μM, in the presence of 10 μM of glycine) on rat-cultured cerebellar granule neurons.
The functional assay of antagonist activity at the NMDA receptors was performed using primary cultures of rat cerebellar granule neurons that were prepared according to established protocols. Cells were grown on 10 mm poly-L-lysine coated glass cover slips, and used for the experiments after 6–9 days in vitro. Cells were loaded with 6 µM Fura-2 AM (ThermoFisher Scientific-Molecular Probes) for 30 min. Afterwards, the coverslip was mounted on a quartz cuvette containing a Locke-Hepes buffer using a special holder. Measurements were performed using a PerkinElmer LS-55 fluorescence spectrometer (Waltham, MA, USA) equipped with a fast-filter accessory, under mild agitation and at 37 °C. Analysis of each sample was recorded in real time for 1600 s. After stimulation with NMDA (100 µM, in the presence of 10 µM glycine), increasing cumulative concentrations of the compound to be tested were added. The percentages of inhibition at every tested concentration were analyzed using a non-linear regression curve fitting analysis by using the software GraphPad Prism 5.0 (GraphPad Software Inc., La Jolla, CA, USA).
Table S1. NMDA antagonist activity in rat cerebellar granule cells. […]
aPercentage inhibition values at 100 µM (left) and 300 μM (right) were expressed as percentages, relative to maximum intracellular calcium concentration stimulated by 100 µM NMDA in the presence of 10 µM of glycine. All experiments were repeated at least three times. bIC50 value was obtained from concentration response curves.

Series [2] has as its target T1, human P2X7 receptor (Homo sapiens, UniProt Q99572).
T1 construct: expressed in transfected cells; host or cells: HEK293
T1 sequence (Q99572 1-595): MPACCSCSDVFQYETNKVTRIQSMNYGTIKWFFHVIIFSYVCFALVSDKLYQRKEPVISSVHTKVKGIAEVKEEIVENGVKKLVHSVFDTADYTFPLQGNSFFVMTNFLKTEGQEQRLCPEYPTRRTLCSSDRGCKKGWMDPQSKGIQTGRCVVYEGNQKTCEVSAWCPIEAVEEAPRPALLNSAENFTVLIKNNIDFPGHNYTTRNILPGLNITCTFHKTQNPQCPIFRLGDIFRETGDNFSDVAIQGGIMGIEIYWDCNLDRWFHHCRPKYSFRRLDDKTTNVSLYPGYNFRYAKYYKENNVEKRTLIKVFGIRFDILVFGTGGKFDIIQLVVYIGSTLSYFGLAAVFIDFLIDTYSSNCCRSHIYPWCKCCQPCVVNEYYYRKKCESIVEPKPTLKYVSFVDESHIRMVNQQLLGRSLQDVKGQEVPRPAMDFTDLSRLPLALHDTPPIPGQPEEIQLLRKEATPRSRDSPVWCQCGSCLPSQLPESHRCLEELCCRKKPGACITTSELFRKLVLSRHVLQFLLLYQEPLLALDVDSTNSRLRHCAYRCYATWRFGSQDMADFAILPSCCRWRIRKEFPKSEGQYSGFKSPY
Put plainly: BzATP-induced ethidium bromide uptake (dye uptake) in hP2X7-expressing HEK293 cells. The settings on record: for IC50: ethidium bromide accumulation stimulated by BzATP 6 µM, hP2X7-expressing HEK293 cells, from concentration-response curves; for inhibition at 1 µM / inhibition at 10 µM: P2X7, relative to maximum ethidium bromide uptake stimulated by BzATP 6 µM; for inhibition at 1 µM: at 1 μM (right value); for inhibition at 10 µM: at 10 µM (left value). In kind it is cell-based. How it is done:
All new compounds were evaluated for their antagonistic effects on 2’(3’)-O-(4-benzoylbenzoyl)-ATP (BzATP)-induced ethidium bromide uptake in human embryonic kidney 293 (HEK 293) cells, stably expressing the human P2X7 receptor, using P2X7 receptor antagonist AZD9056—AstraZeneca’s clinical drug candidate [46]—as a positive control. […] However, taking into account that we wanted to design a compound endowed with low micromolar inhibitory potencies against both the P2X7 and NMDA receptors, compound 9g suited our purpose.
HEK293 cells stably expressing the P2X7 receptor were maintained in Dulbecco's modified Eagle's medium (DMEM) supplemented with 10% fetal bovine serum (FBS), 2 mM L-glutamine, and antibiotics (50 U/mL penicillin and […] streptomycin) in a humidified 5% CO2 atmosphere at 37 °C. We used Lipofectamine as a transfection reagent with a pcDNA3.1 vector-based plasmid harbouring hP2X7R (Invitrogen, Waltham, MA, USA). After diluting to 2.5 × 10^6 cells/mL, a buffer composed of 10 mM HEPES, 5 mM N-methyl-D-glutamine, 5.6 mM KCl, 10 mM D-glucose, and 0.5 mM CaCl2 (pH 7.4), supplemented with either 280 mM sucrose or 140 mM NaCl and an 80 μL aliquot, was added to each well of 96-well culture plates. The test compounds and 2(3’)-O-(4-benzoylbenzoyl)-ATP (BzATP) were then added, and the cells were incubated for 2 h in a humidified 5% CO2 atmosphere at 37 °C. After incubation, a Bio-Tek FL600 fluorescence plate reader (Winooski, VT, USA) was used to measure the […] at an excitation wavelength of 530 nm and an emission wavelength of 590 nm. The inhibition (percent) of ethidium ion uptake was expressed as a relative value of the maximum accumulation when stimulated with BzATP only. To calculate IC50 values, we calculated a series of dose–response data using nonlinear regression analysis (i.e., percentage accumulation of ethidium bromide vs compound concentration). The concentration of ethidium bromide was 0.1 mM.

Series [3] has as its system NMDAR. The settings on record: cited from earlier work.
For series [4], the system named is hP2X7. Details: method as in PMID 18438986. As to conditions: read-out: P2X7R antagonist activity IC50; cited from earlier work.
For series [5], the system named is hP2X7. Details: method as in PMID 22400713. As to conditions: read-out: P2X7R antagonist IC50; cited from earlier work.

Where two headings read alike, the source gives them in different places.

Regarding `NC12CC3CC(C1)CC(C(=O)NNc1ccccc1Cl)(C3)C2` [Compound 9g, 3-Amino-N'-(2-chlorophenyl)adamantane-1-carbohydrazide], the melting point fell in the range of 220 to 222 °C. Also, in series [1] (NMDA 100 μM with 10 μM glycine, rat cerebellar granule neurons, read-out: IC50 (NMDA receptor)), the IC50 is 468 ± 23 µM. In addition, the “NMDA receptor inhibition (in words)” value in series [1] (rat cerebellar granule neurons) is “some activity as an NMDA receptor antagonist”. The compound further came in with a half-maximal inhibitory concentration (IC50) in series [2] of 6 ± 0.6 µM.

For the compound `CC12CC3CC(C)(C1)CC(N)(C3)C2` [memantine], in series [3], the “fold more potent as an NMDA inhibitor than amantadine” value is recorded as 60 fold.

On to `NC12CC3CC(CC(C3)C1)C2` [amantadine], for which the half-maximal inhibitory concentration (IC50) in series [3] (amantadine, read-out: NMDAR antagonist IC50) was 92 ± 29 µM.

`NC12CC3CC(C1)CC(C(=O)NNc1cccc(Cl)c1Cl)(C3)C2` [Compound 9c, 3-Amino-N'-(2,3-dichlorophenyl)adamantane-1-carbohydrazide] had a melting point of 215 to 219 °C. For the same compound, the “% inhibition” value in series [1] (at 100 µM (left value)) turned out to be 23%. The “% inhibition” value in series [1] (at 300 μM (right value)) is recorded as 30%. In series [2], the inhibition at 1 µM was 17% and the inhibition at 10 µM amounted to 42%.

Compound `NC12CC3CC(C1)CC(C(=O)NNc1cccc(Cl)c1F)(C3)C2` [Compound 9f, 3-Amino-N'-(3-chloro-2-fluorophenyl)adamantane-1-carbohydrazide] gave a melting point of 200 to 202 °C. The “% inhibition” value in series [1] (at 100 µM (left value)) is recorded as 11%. The “% inhibition” value in series [1] (at 300 μM (right value)) was 18%. For the same compound, in series [2], the inhibition at 1 µM came out at 17% and the inhibition at 10 µM was found to be 15%.

`O=C(NNc1ccccc1Cl)C12CC3CC(CC(C3)C1)C2` [Compound 1a]: the IC50 in series [4] was 0.0116 ± 0.002 µM.

For `CC12CC3(C)CC(N)(C1)CC(C(=O)NNc1c(Cl)cncc1Cl)(C2)C3` [Compound 15a, 3-Amino-N'-(3,5-dichloropyridin-4-yl)-5,7-dimethyladamantane-1-carbohydrazide], the melting point fell in the range of 300 to 302 °C. The “% inhibition” value in series [1] (at 100 µM (left value)) came to 20%. For the same compound, in series [1] (at 300 μM (right value)), the “% inhibition” value came to 31%. Moreover, in series [1] (rat cerebellar granule neurons), the “NMDA receptor inhibition (in words)” value is listed as “unable to significantly inhibit the NMDA receptor even at millimolar concentrations”. For the same compound, the IC50 in series [2] is 9.9 ± 0.7 µM.

For the compound `O=C(NNc1ccccc1Cl)C12CC3CC(CC(O)(C3)C1)C2` [Compound 1b], in series [4], the IC50 was 0.275 ± 0.05 µM.

For `CC12CC3CC(C)(C1)CC(C(=O)NNc1c(Cl)cncc1Cl)(C3)C2` [Compound 3], the IC50 in series [5] was 0.013 ± 0.001 µM.

`NC12CC3CC(C1)CC(C(=O)NNc1ccc(C(F)(F)F)cc1Cl)(C3)C2` [Compound 9d, 3-Amino-N'-[2-chloro-4-(trifluoromethyl)phenyl]adamantane-1-carbohydrazide]: the melting point lay in the range of 185 to 186 °C. In addition, in series [1] (at 100 µM (left value)), the “% inhibition” value stood at 20%. In addition, in series [2], 1 µM produced 21% inhibition and at 10 µM the inhibition was 24%.

As for `O=C(NCC12CC3CC(CC(C3)C1)C2)c1cc(CCCNCCCO)ccc1Cl` [AZD9056, reference compound], the midpoint of inhibition in series [2], the IC50, lay at 0.0041 ± 0.0007 µM.

For `NC12CC3CC(C1)CC(C(=O)NNc1ccccc1C(F)(F)F)(C3)C2` [Compound 9a, 3-Amino-N'-[2-(trifluoromethyl)phenyl]adamantane-1-carbohydrazide], the melting point fell in the range of 213 to 216 °C. In addition, the “% inhibition” value in series [1] (at 100 µM (left value)) was found to be 5%. Besides, in series [1] (at 300 μM (right value)), the “% inhibition” value worked out at 14%. In series [2], this compound showed an inhibition at 1 µM of 37% and an inhibition at 10 µM of 48%.

`CC12CC3(C)CC(N)(C1)CC(C(=O)NNc1ccccc1Cl)(C2)C3` [Compound 15b, 3-Amino-N'-(2-chlorophenyl)-5,7-dimethyladamantane-1-carbohydrazide] registered a melting point of 280 to 282 °C. Also, in series [1] (at 100 µM (left value)), the “% inhibition” value worked out at 7%. Further, the “% inhibition” value in series [1] (at 300 μM (right value)) stood at 8%. The “NMDA receptor inhibition (in words)” value in series [1] (rat cerebellar granule neurons) was “unable to significantly inhibit the NMDA receptor even at millimolar concentrations”. For the same compound, the concentration for half-maximal inhibition (IC50) in series [2] is 16.1 ± 1.6 µM.

On to `NC12CC3CC(C1)CC(C(=O)NNc1c(Cl)cncc1Cl)(C3)C2` [Compound 9e, 3-Amino-N'-(3,5-dichloropyridin-4-yl)adamantane-1-carbohydrazide], for which the melting point is 191 to 192 °C. In addition, in series [1] (at 100 µM (left value)), the “% inhibition” value is 6%. In addition, the “% inhibition” value in series [1] (at 300 μM (right value)) was 16%. In series [2], this compound came in with an inhibition at 1 µM of 27% and an inhibition at 10 µM of 53%.

`NC12CC3CC(C1)CC(C(=O)NCc1ccccc1Cl)(C3)C2` [Compound 2, 3-Amino-N-(2-chlorobenzyl)adamantane-1-carboxamide] showed a melting point of 186 to 189 °C. Also, the “% inhibition” value in series [1] (at 100 µM (left value)) worked out at 18%. Also, the “% inhibition” value in series [1] (at 300 μM (right value)) stood at 30%.

As for `NC12CC3CC(C1)CC(C(=O)NNc1c(Cl)cccc1Cl)(C3)C2` [Compound 9b, 3-Amino-N'-(2,6-dichlorophenyl)adamantane-1-carbohydrazide], the melting point fell in the range of 153 to 156 °C. Moreover, the “% inhibition” value in series [1] (at 100 µM (left value)) is given as 17%. Also, the “% inhibition” value in series [1] (at 300 μM (right value)) was 38%. Further, in series [2], the inhibition at 1 µM turned out to be 16% and the inhibition at 10 µM turned out to be 23%.

For orientation: IC50 means the concentration at which inhibition is half-maximal. For orientation: melting point means the temperature, or range, at which the solid turns liquid. The % inhibition is how much of the control response was suppressed. In general, inhibition refers to the percentage by which the read-out fell short of the control. Low readings indicate little suppression, high ones strong suppression.
